In patent US9463256B2, “Pretargeting kit, method and agents used therein” (KONINKLIJKE PHILIPS N.V., priority 2010, dated 2016):

What was measured:
[1] = Trans-cyclooctene stability in vivo (blood samples reacted with excess ^111In-tetrazine 28); parameters: species or system mice; conditions: TCO bound to CC49, tumor-free mice
Experimental: Tumor-free mice (n=3 per group) were injected intravenously with CC49-PEG10-TCO-O major (CC49-23a; 8.4 TCO per CC49; 300 μg/100 μL per mouse), CC49-PEG10-TCO-C minor (CC49-27b; 3.3 TCO per CC49, […]), and CC49-TCO-O major without spacer (CC49-20a; 8.0 TCO per CC49, 300 μg/100 μL per mouse). At selected time points (from 1 hour up to 4 days post injection) blood samples were withdrawn from the vena saphena and collected in vials containing heparin. The blood samples were weighed and an excess ^111In-tetrazine 28 was added. After 20 min incubation at 37° C., blood aliquots were 10-fold diluted with PBS and analyzed by SDS-PAGE. The cycloaddition yields were determined from the radioactivity in the bands corresponding to the mAb and the counts were quantified with AIDA Image Analyzer software. The amount of mAb present in blood at each time point (% ID/g blood) was evaluated in three separate groups of mice (n=3), which were injected with the corresponding ^125I—CC49-TCO (300 μg/100 μL per mouse, ca. 0.2 MBq). The data, corrected for mAb clearance, were normalized to 100% ID TCO at t=0.
This experiment was carried out to expand the series of in vivo TCO stability measurements described in Example 6. […] In the new experiment, following the same procedure, we tested the in vivo stability of a CC49-bound TCO minor without PEG spacer (20b, 6.9 equivalents bound).

LS174T tumor model [2] = test: Biodistribution experiments in tumor bearing mice pretargeted with CC49-TCO constructs; type: in vivo, Nude female Balb/C mice; conditions: 3 h after injection
Experimental: (§1) LS174T tumor model. The human colon cancer cell line LS174T was obtained from the ATCC and maintained in Eagle's minimal essential medium (Sigma) supplemented with 10% heat inactivated fetal calf serum (Gibco), penicillin (100 U/mL), streptomycin (100 μg/mL) and 2 mM Glutamax. Nude female Balb/C mice (20-25 g body weight, Charles River Laboratories) were inoculated subcutaneously with 5×10^6 cells in 100 μL sterile PBS.
Dual isotope biodistribution experiments were performed by injecting tumor bearing mice (n=3) intravenously with ^125I-labeled CC49-TCO constructs with and without PEG10 spacer (100 μg/100 μL per mouse, ca. […] 0.8 MBq). Three hours after tetrazine administration, the animals were anesthetized with isoflurane and sacrificed by cervical dislocation. Blood was withdrawn by heart puncture and organs and tissues of interest were harvested, blotted dry and weighed. The radioactivity of the samples was measured in a γ-counter along with standards to determine the % ID/gram. The energy windows were set to 10-80 keV and 100-510 keV for ^125I and ^111In, respectively.

LS174T tumor model [3] = test: Tumor targeting of CC49-TCO (20b) constructs; type: in vivo, Nude female Balb/C mice; conditions: 3 h post-injection
Experimental: as §1
[…] The mice that received ^125I—CC49 were sacrificed 4 days post mAb injection. The mice that received ^125I—CC49-TCO 20b were injected with ^111In-DOTA-tetrazine 28 at 72 h post-mAb injection (25 eq. with respect to mAb, ca. 0.8 MBq) and were sacrificed 3 h after tetrazine injection. At the time of sacrifice, blood was collected by heart puncture and organs and tissues of interest were harvested, blotted dry, weighed and added with 1 mL PBS. The radioactivity in all samples was measured in a gamma-counter (Wizard 3, Perkin Elmer) with a dual-isotope protocol (energy windows set to 10-80 keV and 100-510 keV for ^125I and ^111In, respectively) along with standards to determine the percent injected dose per gram tissue (% ID/g).

LS174T tumor model [4] = test: SPECT/CT imaging of tumor-bearing mice; type: in vivo
Experimental: as §1
Tumor-bearing mice were injected with ^111In-tetrazine 28 (21 μg/75 μL per mouse, 20-50 MBq) 3 or 4 days after receiving 100 μg of a CC49-TCO construct without PEG10 spacer. Approximately 1 h later, the mice were anesthetized and positioned on an animal bed equipped with a nose cone for anesthesia and a sensor for respiratory monitoring. Single photon emission computed tomography (SPECT) was performed 2 h post tetrazine injection with a four-headed multi-pinhole small animal SPECT/CT imaging system (NanoSPECT, Bioscan Inc.). The SPECT acquisition (1 h total) was performed with 1.4 mm diameter pinholes and a 120-140 sec acquisition time per view (24 projections). The energy window for ^111In was set at 245 keV±15% and 171 keV±20%. Two-to-four days after the first scan, the mice were euthanized by anesthesia overdose and a second SPECT/CT scan was acquired overnight. Prior to each SPECT session a CT scan (2 sec per projection, 360 projections) was performed to obtain anatomical information on radioactivity distribution. After the acquisition, the data was reconstructed iteratively with the manufacturer's software (InVivoScope 1.39, patch 1). Regions of interest (ROIs) were drawn manually in triplicate for tumor, liver, kidney and thigh muscle. A phantom filled with a known amount of ^111In was used to calibrate the scanner for tissue radioactivity quantification. The image of three mice injected with CC49-TCO-O minor (CC49-20b), CC49-TCO-O major (CC49-20a) and CC49-TCO-C minor (CC49-14b) on a representative time scale are depicted in FIG. 13 A-C, respectively.
FIG. 13: (left) SPECT/CT projections of live mice 2 h after injection of ^111In-tetrazine 28 (21 μg/75 μL per mouse, ca. 40 MBq), 3-4 days after the administration of (A) CC49-TCO-O minor (CC49-20b), (B) CC49-TCO-O major (CC49-20a) or (C) CC49-TCO-C minor (CC49-14b) (100 μg/100 μL per mouse). (Right), post mortem SPECT/CT scans of the same mice 2-4 days after the first imaging session. White arrows indicate tumors.

[5] = 1 day pretargeting with CC49-14b
[6] = 1 day pretargeting with CC49-20a
[7] = 1 day pretargeting with CC49-20b
[8] = 3 days pretargeting with CC49-14b
[9] = 3 days pretargeting with CC49-20a
[10] = 3 days pretargeting with CC49-20b
[11] = mice pretreated with CC49-TCO(8.5) 72 h before
[12] = mice pretreated with CC49-TCO(12.7) 72 h before
[13] = mice pretreated with CC49-TCO(18.2) 72 h before

## O=C(ON1C(=O)CCC1=O)c1ccc(COC2CC/C=C/CCC2)cc1 (centres unmarked) [20a, (E-major)-2,5-Dioxopyrrolidin-1-yl 4-((cyclooct-4-enyloxy)methyl)benzoate]
[1]
  time stable in vivo: at least 4 days

## O=C([O-])CN1CCN(CC(=O)[O-])CCN(CC(=O)NCCOCCOCCOCCOCCOCCOCCOCCOCCOCCOCCOCCNC(=O)CCCC(=O)Nc2ccc(-c3nnc(-c4ccccn4)nn3)nc2)CCN(CC(=O)[O-])CC1.[111In+3] [^111In-tetrazine 28]
LS174T tumor model [2]; [5]
  ^111In-tetrazine in Blood: 1.12 ± 0.09 % ID/gram
  ^111In-tetrazine in Bone: 0.27 ± 0.08 % ID/gram
  ^111In-tetrazine in Brain: 0.05 ± 0.01 % ID/gram
  ^111In-tetrazine in Heart: 0.46 ± 0.12 % ID/gram
  ^111In-tetrazine in Kidney: 3.12 ± 0.33 % ID/gram
  ^111In-tetrazine in Liver: 1.17 ± 0.35 % ID/gram
  ^111In-tetrazine in Lung: 0.79 ± 0.24 % ID/gram
  ^111In-tetrazine in Muscle: 0.22 ± 0.07 % ID/gram
  ^111In-tetrazine in Spleen: 0.53 ± 0.14 % ID/gram
  ^111In-tetrazine in Tumor: 2.59 ± 0.35 % ID/gram
LS174T tumor model [2]; [6]
  ^111In-tetrazine in Blood: 2.39 ± 1.77 % ID/gram
  ^111In-tetrazine in Bone: 0.33 ± 0.16 % ID/gram
  ^111In-tetrazine in Brain: 0.10 ± 0.06 % ID/gram
  ^111In-tetrazine in Heart: 0.84 ± 0.71 % ID/gram
  ^111In-tetrazine in Kidney: 2.84 ± 0.35 % ID/gram
  ^111In-tetrazine in Liver: 2.05 ± 1.03 % ID/gram
  ^111In-tetrazine in Lung: 1.13 ± 0.55 % ID/gram
  ^111In-tetrazine in Muscle: 0.33 ± 0.22 % ID/gram
  ^111In-tetrazine in Spleen: 0.83 ± 0.46 % ID/gram
  ^111In-tetrazine in Tumor: 2.40 ± 0.16 % ID/gram
LS174T tumor model [2]; [7]
  ^111In-tetrazine in Blood: 1.61 ± 0.45 % ID/gram
  ^111In-tetrazine in Bone: 0.40 ± 0.05 % ID/gram
  ^111In-tetrazine in Brain: 0.07 ± 0.01 % ID/gram
  ^111In-tetrazine in Heart: 0.50 ± 0.04 % ID/gram
  ^111In-tetrazine in Kidney: 3.39 ± 0.84 % ID/gram
  ^111In-tetrazine in Liver: 1.41 ± 0.45 % ID/gram
  ^111In-tetrazine in Lung: 0.97 ± 0.16 % ID/gram
  ^111In-tetrazine in Muscle: 0.24 ± 0.06 % ID/gram
  ^111In-tetrazine in Spleen: 0.65 ± 0.12 % ID/gram
  ^111In-tetrazine in Tumor: 3.42 ± 0.40 % ID/gram
LS174T tumor model [2]; [8]
  ^111In-tetrazine in Blood: 0.54 ± 0.11 % ID/gram
  ^111In-tetrazine in Bone: 0.20 ± 0.07 % ID/gram
  ^111In-tetrazine in Brain: 0.03 ± 0.01 % ID/gram
  ^111In-tetrazine in Heart: 0.24 ± 0.07 % ID/gram
  ^111In-tetrazine in Kidney: 2.82 ± 0.28 % ID/gram
  ^111In-tetrazine in Liver: 0.84 ± 0.21 % ID/gram
  ^111In-tetrazine in Lung: 0.50 ± 0.11 % ID/gram
  ^111In-tetrazine in Muscle: 0.16 ± 0.04 % ID/gram
  ^111In-tetrazine in Spleen: 0.34 ± 0.09 % ID/gram
  ^111In-tetrazine in Tumor: 2.76 ± 1.36 % ID/gram
LS174T tumor model [2]; [9]
  ^111In-tetrazine in Blood: 0.79 ± 0.39 % ID/gram
  ^111In-tetrazine in Bone: 0.15 ± 0.00 % ID/gram
  ^111In-tetrazine in Brain: 0.26 ± 0.11 % ID/gram
  ^111In-tetrazine in Heart: 0.30 ± 0.03 % ID/gram
  ^111In-tetrazine in Kidney: 3.16 ± 0.57 % ID/gram
  ^111In-tetrazine in Liver: 0.88 ± 0.13 % ID/gram
  ^111In-tetrazine in Lung: 0.58 ± 0.07 % ID/gram
  ^111In-tetrazine in Muscle: 0.21 ± 0.02 % ID/gram
  ^111In-tetrazine in Spleen: 0.43 ± 0.03 % ID/gram
  ^111In-tetrazine in Tumor: 3.11 ± 0.80 % ID/gram
LS174T tumor model [2]; [10]
  ^111In-tetrazine in Blood: 0.59 ± 0.10 % ID/gram
  ^111In-tetrazine in Bone: 0.16 ± 0.02 % ID/gram
  ^111In-tetrazine in Brain: 0.03 ± 0.01 % ID/gram
  ^111In-tetrazine in Heart: 0.22 ± 0.03 % ID/gram
  ^111In-tetrazine in Kidney: 2.59 ± 0.24 % ID/gram
  ^111In-tetrazine in Liver: 0.64 ± 0.06 % ID/gram
  ^111In-tetrazine in Lung: 0.46 ± 0.07 % ID/gram
  ^111In-tetrazine in Muscle: 0.18 ± 0.09 % ID/gram
  ^111In-tetrazine in Spleen: 0.35 ± 0.08 % ID/gram
  ^111In-tetrazine in Tumor: 2.56 ± 0.65 % ID/gram
LS174T tumor model [3]; [11]
  ^111In-tetrazine 28 in Blood: 0.45 ± 0.14 % ID/g
  ^111In-tetrazine 28 in Bone: 0.10 ± 0.03 % ID/g
  ^111In-tetrazine 28 in Brain: 0.02 ± 0.01 % ID/g
  ^111In-tetrazine 28 in Heart: 0.16 ± 0.03 % ID/g
  ^111In-tetrazine 28 in Kidney: 1.64 ± 0.28 % ID/g
  ^111In-tetrazine 28 in Liver: 0.44 ± 0.12 % ID/g
  ^111In-tetrazine 28 in Lung: 0.42 ± 0.06 % ID/g
  ^111In-tetrazine 28 in Muscle: 0.11 ± 0.05 % ID/g
  ^111In-tetrazine 28 in Spleen: 0.25 ± 0.05 % ID/g
  ^111In-tetrazine 28 in Tumor: 3.72 ± 1.45 % ID/g
LS174T tumor model [3]; [12]
  ^111In-tetrazine 28 in Blood: 0.37 ± 0.28 % ID/g
  ^111In-tetrazine 28 in Bone: 0.08 ± 0.02 % ID/g
  ^111In-tetrazine 28 in Brain: 0.01 ± 0.01 % ID/g
  ^111In-tetrazine 28 in Heart: 0.13 ± 0.05 % ID/g
  ^111In-tetrazine 28 in Kidney: 1.25 ± 0.24 % ID/g
  ^111In-tetrazine 28 in Liver: 0.29 ± 0.12 % ID/g
  ^111In-tetrazine 28 in Lung: 0.34 ± 0.10 % ID/g
  ^111In-tetrazine 28 in Muscle: 0.05 ± 0.00 % ID/g
  ^111In-tetrazine 28 in Spleen: 0.20 ± 0.06 % ID/g
  ^111In-tetrazine 28 in Tumor: 3.36 ± 1.69 % ID/g
LS174T tumor model [3]; [13]
  ^111In-tetrazine 28 in Blood: 0.12 ± 0.03 % ID/g
  ^111In-tetrazine 28 in Bone: 0.10 ± 0.02 % ID/g
  ^111In-tetrazine 28 in Brain: 0.04 ± 0.05 % ID/g
  ^111In-tetrazine 28 in Heart: 0.09 ± 0.03 % ID/g
  ^111In-tetrazine 28 in Kidney: 2.15 ± 0.17 % ID/g
  ^111In-tetrazine 28 in Liver: 0.26 ± 0.05 % ID/g
  ^111In-tetrazine 28 in Lung: 0.29 ± 0.01 % ID/g
  ^111In-tetrazine 28 in Muscle: 0.29 ± 0.43 % ID/g
  ^111In-tetrazine 28 in Spleen: 0.20 ± 0.02 % ID/g
  ^111In-tetrazine 28 in Tumor: 1.21 ± 0.22 % ID/g
LS174T tumor model [4]; 3 days after pre-treatment with CC49-TCO-O (both major and minor forms)
  ^111In-tetrazine uptake in tumor (SPECT/CT): high ^111In-tetrazine uptake in tumor
LS174T tumor model [4]; after the administration of CC49-TCO-C minor, 4 days delay between the two treatments
  radioactivity uptake (SPECT/CT): rather low radioactivity uptake
LS174T tumor model [4]; mice given CC49-TCO-C minor, 2 days after the early scan
  signal in the tumor at late scan (SPECT/CT): still present
LS174T tumor model [4]; mice pre-treated with CC49-TCO 0, 72-96 h after ^111In-tetrazine injection
  tumor radioactivity at late scan (SPECT/CT): still highly radioactive
